# According to US6740673B2, “Quarternary ammonium compounds” (UCB Farchim SA, priority 1998, dated 2004):
# Tested on: cough responses induced by citric acid (1M) aerosol in conscious guinea-pigs
# Assay: Antitussive activity against citric acid aerosol-induced cough in conscious guinea-pigs
# Type: in vivo, guinea-pig (male albino Dunkin-Hartley)
# Details: aerosol pre-treatment at 10.0 mg/ml immediately before citric acid (1M) exposure; for inhibition of cough responses compared with vehicle: vs vehicle (distilled water), 15 minute observation period
# Excerpt: The following method was one of the general methods available to determine the antitussive activity of the compounds of the present invention.
# Male albino Dunkin-Hartley strain guinea-pigs (weight 300-400 g) were supplied by Harlan UK Ltd., Bicester, Oxon, UK.
# The method used was modified from that described by Adcock J. J., Schneider C. and Smith T. W., “Effects of Morphine and a Novel Opioid Pentapeptide BW443C, on Cough, Nociception and Ventilation in the Unanaesthetized Guinea-pig”, Br. J. Pharmacol., 93, 93-100 (1988). Individual conscious guinea-pigs were placed unrestrained into a sealed purpose built perspex exposure chamber (3,000 cm^3 volume) and allowed to acclimatize prior to aerosol administration.
# Cylinder air was introduced into the exposure chamber at a flow rate of 1 liter/min, maintained by a needle valve and monitored by a rotameter. From the rotameter the air passed through the cup of an ultrasonic nebulizer (DeVilbis UltraNeb 2000) which was used to generate aerosols of drug or citric acid at 0.15 ml/min. A Fleisch pneumotachograph, connected to a differential pressure transducer (Grass model PT5) was attached to the outflow from the exposure chamber and provided a measurement of airflow from the chamber. […]
# Cough responses were induced by exposure to an aerosol of citric acid (1M) for 10 minutes. Animals were continuously monitored by trained observer, and the number of coughs were counted during a 15 minute period from commencement of the citric acid aerosol administration. […]
# The three types of response were differentiated primarily by sound and visual observation. […] Data recorded for individual guinea-pigs on the Poh-Ne-Mah system was stored on an optical disk. Each cough was marked on the Grass polygraph paper trace, and from these record numbers, frequency and time of onset of coughs were determined. […]
# Quantities of drugs were weighed out and dissolved in a vehicle. […] The sequence of pre-treatment administration was determined according to a 4×4 Latin Square design. […]
Compound,inhibition of cough responses compared with vehicle [%],prolongation of mean latency of cough onset (time to first recorded cough) [fold]
"C[N+](C)(CC(=O)Nc1ccccc1)CC(=O)N1CCc2ccccc21.[Cl-] [Compound 2, N-[(1-Indolinyl)carbonylmethyl]-N-(phenylcarbamoylmethyl) dimethylammonium chloride]",56,
"CC[N+](CC)(CC)CC(=O)N1CCc2ccccc21 [Compound 3, N-[(1-Indolinyl)carbonylmethyl]triethylammonium chloride]",36,2.5
